Consider 80 molecules from the METLIN SMRT retention time set (Domingo-Almenara et al. 2019).

SMILES strings stand for the structures.

The nature of this data set: gradient 5% acetonitrile 3 min, to 50% in 2 min, to 85% in 15 min, held 3 min, 100 µL/min. As to conditions: column: Zorbax Extend-C18 2.1 x 50 mm; eluents: water / acetonitrile, 0.1% formic acid. Summed up: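 Pure standards were analyzed in mixtures of ~100 molecules using HPLC coupled to a quadrupole time-of-flight mass spectrometer, in both positive and negative ionization mode. Separation used a Zorbax Extend-C18 column (2.1 × 50 mm, 1.8 μm) at 100 μL/min, with water and acetonitrile each containing 0.1% formic acid. Dead and dwell volumes were 40 μL and 900 μL, and data were collected over 3 months. Retention time was read from computationally picked adduct peaks, each inspected manually.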
Regarding `O=C(c1cccc2[nH]ccc12)N1CCCC1c1nc(-c2cccc(Cl)c2)no1` (stereo not given), the RP-LC retention time was determined as 993 s. The value for `Cc1cccc(NC(=O)N(C)CCc2noc(COc3cccc(C)c3)n2)c1` was 970 s; that for `O=C(c1cn2cc(Cl)ccc2n1)N1CCN(c2ccccc2Cl)CC1` was 946 s; that for `CC(NC(=O)c1ccc2ncnc(N3CCCCC3)c2c1)c1ccc(F)cc1` (stereo not given) was 687 s. The value for `CCc1nnc2cc(N3CCN(C(=O)Nc4ccc(C)cc4)CC3)cnn12` was 649 s. The value for `Cc1cc(NC(=O)c2cn3c(n2)CSCC3)ccc1F` was 743 s. As for `O=C(COc1ccccc1)NCC1CC(=O)N(Cc2ccc(F)cc2)C1` (stereo not given), the RP-LC retention time came out at 692 s.

The molecule `COc1ccccc1NC(=O)Cn1c(C)cc(-c2nnc(-c3ccccc3)o2)c1C` yielded an RP-LC retention time of 988 s. The result for `CCc1cc(C(=O)NCc2ccc(C)o2)nc2cc(-c3ccco3)nn12` reads 767 s. As to `COc1ccc(C(=S)N2CCN(c3ccccc3C)CC2)cc1`, the RP-LC retention time is 1260 s. In turn, `CCCOc1ccc(CNC(=O)c2nc(N3CCSCC3)c3cn(C)nc3n2)cc1` had an RP-LC retention time of 798 s. The result for `CC1CN(C(=O)COc2ccc3ccccc3c2)c2ccccc2NC1=O` (stereo not given) reads 825 s; that for `CCSc1nnc(-c2nn(C)c3c2CN(S(=O)(=O)c2ccc(OC)c(Cl)c2)CC3)n1CC`, 968 s; that for `O=C(Nc1ccc(Cl)cc1)c1cccnc1-n1cc(-c2ccncc2)cn1`, 653 s. The result for `CC(C)N1CCN(Cc2ccc(C(=O)NC3CCCCCC3)cc2)C(=O)C1=O` reads 749 s; that for `COc1ccc(S(=O)(=O)N2CCN(c3ccc(Nc4ccccn4)nn3)CC2)cc1C`, 603 s; that for `Cc1ccccc1CNS(=O)(=O)c1cc(-c2[nH]ncc2C(=O)N(C)C)oc1C`, 701 s.

The molecule `COc1ccc(-c2nc(-c3ccc4c(c3)ncn4CCN3CCCCC3)no2)cc1` returned an RP-LC retention time of 658 s. The result for `Cc1ccccc1-n1c(=O)c2sccc2n(Cc2nc(-c3ccc(Cl)cc3)no2)c1=O` reads 1090 s; that for `COc1cccc(CNC(=O)C2(c3ccc(NC(=O)C(C)C)cc3)CCCCC2)c1`, 950 s; that for `COc1ccc(-c2nc3cccnc3n2C2CCN(C(=O)NCc3ccco3)C2)cc1` (stereo not given), 627 s. `O=C(c1cccc(Cl)c1)N1CCN(S(=O)(=O)c2cc3c4c(c2)CCC(=O)N4CCC3)CC1` had an RP-LC retention time of 843 s. The value for `CC(C)(C)n1nnnc1C1CC2(CCOCC2)C(=O)N1Cc1cc(F)ccc1F` (stereo not given) was 793 s. Consider `COc1ccc(Nc2n[nH]nc2C(=O)Nc2ccccc2Br)cc1`, for which the RP-LC retention time worked out at 1050 s. The value for `O=C(Nc1c(-c2ccccc2)nc2ccc(Cl)cn12)c1ccco1` was 674 s; that for `COCCCNC(=O)c1nc(Nc2ccccc2)c2ccccc2n1` was 664 s; that for `CCCN1CCN(CCCNc2nc(-c3ccc(OC)cc3)nc3ccccc23)CC1` was 576 s.

`CCOC(=O)c1noc2ncnc(Nc3cc(C)ccc3C)c12` gave an RP-LC retention time of 1030 s. On to `Cc1ccc(NC(=O)N2CCCC(C)(C(=O)NCc3ccc(F)cc3)C2)c(C)c1` (stereo not given), for which the RP-LC retention time was 949 s. The result for `CCC(=O)N1CCc2c(-c3ccc(OC)cc3)cccc2[C@H]1C` reads 1030 s; that for `Cc1ccc(NC(=O)NCC(c2cccnc2)c2c[nH]c3ccccc23)cc1F` (stereo not given), 693 s.

Molecule `CS(=O)(=O)N1CCOc2ccc(CCC(=O)NCC3CCCO3)cc2C1` (stereo not given) yielded an RP-LC retention time of 666 s. In turn, `O=C(C1CC1)N1CCC(Cc2noc(C3CC3)n2)C1` (stereo not given) returned an RP-LC retention time of 686 s. The value for `CCOC(=O)N1CCN(C(=O)c2cn(CC(O)c3ccccc3)nn2)CC1` (stereo not given) was 634 s; that for `CC(C)(C)c1ccc(S(=O)(=O)Nc2cccc(C(=O)O)c2)cc1` was 810 s. The value for `CC1CC(=O)c2cnc(N3CCN(c4ccccn4)CC3)nc2C1` (stereo not given) was 611 s; that for `COc1ccc(OCc2nc(-c3cccc(-c4csc(C5CC5)n4)c3)no2)cc1` was 1300 s; that for `CCCn1cc(CCNC(=O)c2cc(F)cc(F)c2)c2cccnc21` was 820 s. In turn, `COCCCN(CC(=O)N1CCc2sccc2C1COc1ccc(Cl)cc1)C(=O)NC(C)C` (stereo not given) returned an RP-LC retention time of 996 s. The value for `CCOC(=O)c1c(C)[nH]c(C(=O)N2CCCC(C(=O)NCCCN3CCCCCC3)C2)c1C` (stereo not given) was 624 s; that for `CCn1cnc(S(=O)(=O)N2CCC(C(=O)NCc3ccc4c(c3)OCO4)CC2)c1` was 684 s; that for `COc1ccc(-c2nc(C)cc(C)c2CNC(=O)C(C)(C)C)cc1` was 613 s. The result for `CC(=O)N1CCc2cc(C)c(S(=O)(=O)Nc3cccc(F)c3)cc21` reads 731 s; that for `Cc1ccc(S(=O)(=O)N2CCC(c3nc(C(=O)N4CCCC4)c(C)o3)CC2)cc1C`, 747 s; that for `COc1ccc(CNC(=O)Cn2c(=O)c3cc(-c4cccs4)nn3c3ncccc32)cc1`, 816 s. The result for `Cc1ccc(-c2ccc(=O)n(Cc3nc(-c4cccs4)no3)n2)cc1` reads 990 s; that for `COc1ccc(N2CC(c3nc(-c4ccc(C)cc4)no3)CC2=O)cc1OC` (stereo not given), 866 s.

Turning to `COc1cccc(Cn2c(=O)c3sccc3n(Cc3nc(-c4ccccc4Cl)no3)c2=O)c1`, the RP-LC retention time was 1080 s. The result for `O=C1NCCCCCCN(C(=O)Nc2ccccc2F)[C@H]2CCC[C@@H]12` reads 805 s. The result for `Cc1ccc(Cc2nc(-c3ccnc(N4CCOCC4)c3)no2)cc1` reads 908 s. The result for `CCC(=O)n1nc(-c2cccc(C)c2)nc1N` reads 890 s; that for `Cc1ccc(Nc2c(-c3nc(C)no3)cnc3nc(C)ccc23)c(F)c1`, 793 s; that for `COc1ccc(N2CCN(C(=O)CCC(=O)N3CCCn4nc(-c5cccn5C)cc43)CC2)cc1`, 711 s. For the molecule `CCc1nc(-c2nnn(-c3ccc(C)cc3)c2C)no1`, the RP-LC retention time was 945 s.

`Cc1cccc(S(=O)(=O)N2CCc3c(c(CN4CCCC4)nn3C)C2)c1` returned an RP-LC retention time of 810 s. The value for `O=C(NCCc1ccccc1)Nc1nccn(-c2ccc(F)c(F)c2)c1=O` was 903 s; that for `N#Cc1ccc(CN2C[C@@H](CO)[C@H](c3nc(C4CC4)no3)C2)cc1` was 600 s. The value for `CCOC(=O)c1c(S(=O)(=O)N2CCC(C(=O)NC3CC3)CC2)c(C)n(C)c1C` was 672 s; that for `CCN(CC)C(=O)c1c(C)sc2ccn(C)c(=O)c12` was 639 s; that for `CC(=O)N1CCc2cc(N3CC(C(=O)Nc4cccc(OC(F)(F)F)c4)CC3=O)ccc21` (stereo not given) was 806 s. The result for `Cc1ccc(CNC(=O)C2(C)CN(S(C)(=O)=O)CC(=O)N2CCCc2ccccc2)cc1` (stereo not given) reads 927 s; that for `Cc1nc(-c2cccnc2)nc2c1CCC(=O)N2Cc1ccco1`, 681 s; that for `Cc1cc(N2CCN(C)CC2)nc2ccc(NC(=O)Nc3ccc(Br)cc3)cc12`, 609 s. `O=S1(=O)CCC(Nc2ncnc3c2cnn3-c2ccc(Cl)c(Cl)c2)C1` (stereo not given) yielded an RP-LC retention time of 903 s.

The molecule `CCCC(=O)N1CCc2cn(C)c3cccc(c23)C1` displayed an RP-LC retention time of 832 s. The result for `CCOC(=O)c1cccc(NC(=O)N2CCc3nc[nH]c3C2)c1` reads 601 s; that for `CCOc1ccc(NC(=O)c2c(Cl)ccc(Cl)c2OC)cc1`, 913 s; that for `O=C(NCc1nnc(SC/C=C/c2ccccc2)o1)c1ccccc1`, 824 s. Regarding `COc1cccc(-c2cc(=O)n3c4ccccc4n(CC(=O)NCc4ccco4)c3n2)c1`, the RP-LC retention time amounted to 864 s. The value for `Cc1noc(-c2ccnc(-n3ncc(C(=O)NC4CCCC4)c3C)c2)n1` was 836 s; that for `Cc1nn2c(ncc3c(=O)n(-c4nccs4)ccc32)c1-c1ccccc1` was 1170 s; that for `COc1cccc(CNC(=O)C2(C)CCCN(C(=O)Nc3ccc(C)cc3)C2)c1` (stereo not given) was 898 s. The result for `Cn1cc(C2c3nccn3CCCN2S(=O)(=O)c2cccc(C(F)(F)F)c2)cn1` (stereo not given) reads 656 s; that for `Cn1cc(CN2CCC(C(=O)NCCN3CCN(c4ccccc4)CC3)CC2)c2ccccc21`, 571 s. The value for `Cc1ncc2c(n1)C[C@@H]1CC[C@H]2N1C(=O)COc1ccccc1` was 669 s.

The molecule `CCc1ccc2nc(C)cc(C(N)=O)c2c1` gave an RP-LC retention time of 561 s. For `CCOC(=O)c1cnc(N2CCN(c3ccccn3)CC2)c2ccccc12`, the RP-LC retention time is 692 s. As to `Cc1nc(-c2ccc3c(c2)CCN3C(=O)C2COc3ccccc3O2)cs1` (stereo not given), the RP-LC retention time is 1020 s.

Consider `Cc1ccc(-c2ncc(NC(=O)c3ccc(Cl)s3)cn2)cc1`, for which the RP-LC retention time is 1140 s. For the molecule `CCCNC(=O)C1CCCN(c2ccc(SCC(=O)Nc3cc(C)cc(C)c3)nn2)C1` (stereo not given), the RP-LC retention time turned out to be 721 s.
